Test results taken from patent publication US6737383B1, “Herbicidal oxadiazolidines” (priority 1999, dated 2004).

How the values were obtained:
wheat = assay: Test B pre/postemergence wheat; format: in vivo, Triticum aestivum; settings: Preemergence
How it was run: (§1)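 Test chemicals in a non-phytotoxic solvent mixture with surfactant were sprayed preemergence onto planted seeds and postemergence onto plants 2 to 18 cm tall (1- to 4-leaf stage). After twelve to sixteen days in a greenhouse, injury was visually rated against untreated controls from 0 (no effect) to 10 (complete control).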

duck salad = assay: Test B flood test duck salad; format: in vivo, Heteranthera limosa
How it was run: (§2)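 Read-out is a visual response score from 0 (no effect) to 10 (complete control), assigned by comparison with untreated controls. Treatment was applied at the 2-leaf stage, and plants stayed in the greenhouse for twelve to sixteen days before scoring.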

corn = assay: Test B pre/postemergence corn; format: in vivo, Zea mays
How it was run: as §1

wild oat = assay: Test B pre/postemergence wild oat; format: in vivo, Avena fatua; settings: Preemergence
How it was run: as §1

blackgrass = assay: Test B pre/postemergence blackgrass; format: in vivo, Alopecurus myosuroides
How it was run: as §1

rice = assay: Test B flood test rice; format: in vivo, Oryza sativa
How it was run: as §2

smallflower flatsedge = assay: Test B flood test smallflower flatsedge; format: in vivo, Cyperus difformis
How it was run: as §2

velvetleaf = assay: Test B pre/postemergence velvetleaf; format: in vivo, Abutilon theophrasti; settings: Preemergence
How it was run: as §1

morningglory = assay: Test B pre/postemergence morningglory; format: in vivo, Ipomoea hederacea
How it was run: as §1

giant foxtail = assay: Test B pre/postemergence giant foxtail; format: in vivo, Setaria faberii
How it was run: as §1

rape = assay: Test B pre/postemergence rape; format: in vivo, Brassica napus
How it was run: as §1

pigweed = assay: Test B pre/postemergence pigweed; format: in vivo, Amaranthus retroflexus
How it was run: as §1

bamyardgrass = assay: Test B flood test barnyardgrass; format: in vivo, Echinochloa crus-galli
How it was run: as §2

soybean = assay: Test B pre/postemergence soybean; format: in vivo, Glycine max; settings: Preemergence
How it was run: as §1

crabgrass = assay: Test B pre/postemergence crabgrass; format: in vivo, Digitaria sanguinalis
How it was run: as §1

sugar beet = assay: Test B pre/postemergence sugar beet; format: in vivo, Beta vulgaris; settings: Preemergence
How it was run: as §1

purple nutsedge = assay: Test B pre/postemergence purple nutsedge; format: in vivo, Cyperus rotundus; settings: Postemergence
How it was run: as §1

bedstraw = assay: Test B pre/postemergence bedstraw; format: in vivo, Galium aparine
How it was run: as §1

surinam grass = assay: Test B pre/postemergence surinam grass; format: in vivo, Brachiaria decumbens
How it was run: as §1

cocklebur = assay: Test B pre/postemergence cocklebur; format: in vivo, Xanthium strumarium
How it was run: as §1

[1] = Rate 31 g/ha, visual rating, scale 0 to 10 (0 no effect, 10 complete control)
[2] = Rate 62 g/ha, scale of 0 to 10 where 0 is no effect and 10 is complete control
[3] = Rate 250 g/ha, scale of 0 to 10 where 0 is no effect and 10 is complete control
[4] = Rate 125 g/ha, scale of 0 to 10 where 0 is no effect and 10 is complete control
[5] = Rate 62 g/ha, headed Pre-emergence (flood test species), scale 0 to 10 (0 no effect, 10 complete control)
[6] = Rate 125 g/ha, Pre-emergence, flood test species, scale 0 to 10 where 0 is no effect and 10 is complete control
[7] = Rate 250 g/ha, Pre-emergence, flood-test species, scale 0 to 10, 0 is no effect, 10 is complete control
[8] = Rate 500 g/ha, Pre-emergence, flood test species, scale 0 to 10 (0 no effect, 10 complete control)
[9] = Preemergence, Rate 31 g/ha, visual rating, scale 0 to 10 (0 no effect, 10 complete control)
[10] = Preemergence, Rate 62 g/ha, scale of 0 to 10 where 0 is no effect and 10 is complete control
[11] = Preemergence, Rate 250 g/ha, scale of 0 to 10 where 0 is no effect and 10 is complete control
[12] = Rate 31 g/ha, Postemergence, scale 0 to 10
[13] = Rate 62 g/ha, Postemergence, scale of 0 to 10 where 0 is no effect and 10 is complete control
[14] = Rate 125 g/ha, Postemergence, scale 0 to 10
[15] = Rate 125 g/ha, Preemergence, scale of 0 to 10 where 0 is no effect and 10 is complete control

CC(C)N(C(=O)n1oc(=O)n(CCc2ccccc2)c1=O)c1ccc(F)cc1 [Compound 250]
Wheat plant response rating (wheat; [1]): 0 | Wheat plant response rating (wheat; [2]): 0 | Wheat plant response rating (wheat; [3]): 0 | Wheat plant response rating (wheat; [4]): 0 | Ducksalad plant response rating (duck salad; [5]): 0 | Ducksalad plant response rating (duck salad; [6]): 0 | Ducksalad plant response rating (duck salad; [7]): 0 | Ducksalad plant response rating (duck salad; [8]): 4 | Corn plant response rating (corn; [9]): 0 | Corn plant response rating (corn; [10]): 0 | Corn plant response rating (corn; [11]): 0 | Corn plant response rating (corn; [12]): 0 | Corn plant response rating (corn; [13]): 0 | Corn plant response rating (corn; [14]): 0 | Corn plant response rating (corn; [15]): 0 | Plant response rating (0 to 10; 0 is no effect, 10 is complete control), Corn (corn; Rate 250 g/ha, Postemergence): 0 | Wild oats plant response rating (wild oat; [1]): 0 | Wild oats plant response rating (wild oat; [2]): 0 | Wild oats plant response rating (wild oat; [3]): 0 | Wild oats plant response rating (wild oat; [4]): 0 | Blackgrass plant response rating (blackgrass; [9]): 0 | Blackgrass plant response rating (blackgrass; [10]): 0 | Blackgrass plant response rating (blackgrass; [11]): 0 | Blackgrass plant response rating (blackgrass; [12]): 0 | Blackgrass plant response rating (blackgrass; [13]): 0 | Blackgrass plant response rating (blackgrass; [14]): 0 | Blackgrass plant response rating (blackgrass; [15]): 0 | Plant response rating (0 to 10; 0 is no effect, 10 is complete control), Blackgrass (blackgrass; Rate 250 g/ha, Postemergence): 2 | Rice plant response rating (rice; [5]): 0 | Rice plant response rating (rice; [6]): 0 | Rice plant response rating (rice; [7]): 0 | Rice plant response rating (rice; [8]): 0 | S. Flatsedge plant response rating (smallflower flatsedge; [5]): 0 | S. Flatsedge plant response rating (smallflower flatsedge; [6]): 0 | S. Flatsedge plant response rating (smallflower flatsedge; [7]): 0 | S. Flatsedge plant response rating (smallflower flatsedge; [8]): 0 | Velvetleaf plant response rating (velvetleaf; [1]): 0 | Velvetleaf plant response rating (velvetleaf; [2]): 0 | Velvetleaf plant response rating (velvetleaf; [3]): 0 | Velvetleaf plant response rating (velvetleaf; [4]): 0 | Morningglory plant response rating (morningglory; [9]): 0 | Morningglory plant response rating (morningglory; [10]): 0 | Morningglory plant response rating (morningglory; [11]): 0 | Morningglory plant response rating (morningglory; [12]): 4 | Morningglory plant response rating (morningglory; [15]): 0 | Plant response rating (0 to 10; 0 is no effect, 10 is complete control), Morningglory (morningglory; Rate 250 g/ha, Postemergence): 6 | Giant foxtail plant response rating (giant foxtail; [9]): 7 | Giant foxtail plant response rating (giant foxtail; [10]): 8 | Giant foxtail plant response rating (giant foxtail; [11]): 10 | Giant foxtail plant response rating (giant foxtail; [12]): 0 | Giant foxtail plant response rating (giant foxtail; [15]): 8 | Plant response rating (0 to 10; 0 is no effect, 10 is complete control), Giant foxtail (giant foxtail; Rate 250 g/ha, Postemergence): 0 | Rape plant response rating (rape; [9]): 0 | Rape plant response rating (rape; [10]): 0 | Rape plant response rating (rape; [11]): 0 | Rape plant response rating (rape; [12]): 0 | Rape plant response rating (rape; [15]): 0 | Plant response rating (0 to 10; 0 is no effect, 10 is complete control), Rape (rape; Rate 250 g/ha, Postemergence): 3 | Redroot pigweed plant response rating (pigweed; [9]): 0 | Redroot pigweed plant response rating (pigweed; [10]): 0 | Redroot pigweed plant response rating (pigweed; [11]): 3 | Redroot pigweed plant response rating (pigweed; [12]): 0 | Redroot pigweed plant response rating (pigweed; [15]): 3 | Plant response rating (0 to 10; 0 is no effect, 10 is complete control), Redroot pigweed (pigweed; Rate 250 g/ha, Postemergence): 0 | Barnyardgrass plant response rating (bamyardgrass; [5]): 0 | Barnyardgrass plant response rating (bamyardgrass; [6]): 0 | Barnyardgrass plant response rating (bamyardgrass; [7]): 0 | Barnyardgrass plant response rating (bamyardgrass; [8]): 0 | Soybean plant response rating (soybean; [1]): 0 | Soybean plant response rating (soybean; [2]): 0 | Soybean plant response rating (soybean; [3]): 0 | Soybean plant response rating (soybean; [4]): 0 | Crabgrass plant response rating (crabgrass; [9]): 0 | Crabgrass plant response rating (crabgrass; [10]): 2 | Crabgrass plant response rating (crabgrass; [11]): 8 | Crabgrass plant response rating (crabgrass; [12]): 0 | Crabgrass plant response rating (crabgrass; [15]): 4 | Plant response rating (0 to 10; 0 is no effect, 10 is complete control), Crabgrass (crabgrass; Rate 250 g/ha, Postemergence): 0 | Sugarbeets plant response rating (sugar beet; [1]): 0 | Sugarbeets plant response rating (sugar beet; [2]): 0 | Sugarbeets plant response rating (sugar beet; [3]): 5 | Sugarbeets plant response rating (sugar beet; [4]): 0 | Nutsedge plant response rating (purple nutsedge; Rate 31 g/ha, scale 0 to 10): 0 | Plant response rating (0 to 10; 0 is no effect, 10 is complete control), Nutsedge (purple nutsedge; Rate 250 g/ha): 0 | Bedstraw plant response rating (bedstraw; [9]): 0 | Bedstraw plant response rating (bedstraw; [10]): 0 | Bedstraw plant response rating (bedstraw; [11]): 0 | Bedstraw plant response rating (bedstraw; [12]): 0 | Bedstraw plant response rating (bedstraw; [13]): 0 | Bedstraw plant response rating (bedstraw; [14]): 0 | Bedstraw plant response rating (bedstraw; [15]): 0 | Plant response rating (0 to 10; 0 is no effect, 10 is complete control), Bedstraw (bedstraw; Rate 250 g/ha, Postemergence): 9 | B. signalgrass plant response rating (surinam grass; [9]): 0 | B. signalgrass plant response rating (surinam grass; [10]): 0 | B. signalgrass plant response rating (surinam grass; [11]): 0 | B. signalgrass plant response rating (surinam grass; [12]): 0 | B. signalgrass plant response rating (surinam grass; [13]): 0 | B. signalgrass plant response rating (surinam grass; Rate 125 g/ha, Postemergence, scale 0 (no effect) to 10 (complete control)): 0 | B. signalgrass plant response rating (surinam grass; [15]): 0 | Plant response rating (0 to 10; 0 is no effect, 10 is complete control), B. signalgrass (surinam grass; Rate 250 g/ha, Postemergence): 0 | Cocklebur plant response rating (cocklebur; [9]): 0 | Cocklebur plant response rating (cocklebur; [10]): 0 | Cocklebur plant response rating (cocklebur; [11]): 0 | Cocklebur plant response rating (cocklebur; [12]): 0 | Cocklebur plant response rating (cocklebur; [13]): 0 | Cocklebur plant response rating (cocklebur; [14]): 0 | Cocklebur plant response rating (cocklebur; [15]): 0 | Plant response rating (0 to 10; 0 is no effect, 10 is complete control), Cocklebur (cocklebur; Rate 250 g/ha, Postemergence): 1
